Two compounds from EP0294069A2, “Purine compounds, process for their preparation, intermediates and pharmaceutical compositions” (priority 1987, dated 1988) can be followed below.

Converted amounts (≈) assume the structure as drawn.

Series [1] can be described thus: Antiviral potency, comparison of isomers (no method given). The following applies: as compared with the (R)-isomer.
Series [2] relates to HSV-1 (SC16 strain, MRC-5 cells). As to the kind of experiment: Plaque reduction test for herpes simplex virus 1. The class given is cell-based. The following applies: Human alphaherpesvirus 1, MRC5, plaque number reduced by 50%. A general note: In a plaque reduction assay, fewer plaques than in the control indicate reduced infectivity or spread.
In series [3] the test system is Visna Virus (K184 strain in SCP cells). As to the kind of experiment: CPE inhibition test (established monolayer) for lentiviruses. The following applies: Visna-maedi virus. The class given is cell-based. As for the experimental part:
3 x 10⁴ sheep choroid plexus (SCP) cells were plated into individual wells of a 96 well microtitre plate in 100µl of Eagle's MEM with Hanks salts containing 10% heat inactivated foetal calf serum (FCS). When monolayers had become established (after l or 2 days growth) they were washed with 200µl of maintenance medium (Eagle's MEM with Hanks salts containing 0.5% FCS) and infected with 100µl of visna virus (strain K184) in maintenance medium (30 TCID₅₀/ml). Test samples were diluted with maintenance medium in further 96 well microtitre plates over the range 200-0.09µg/ml by 3-fold dilution steps. 100µl of the diluted samples was then transferred directly onto virus-infected monolayers (final concentration range therefore 100-0.045µg/ml) and incubated at 37°C in a humidified, 5% CO₂ incubation until virus-induced CPE was maximal in the untreated virus-infected controls (usually 12-14 days). The plates were fixed with formal saline and stained with crystal violet. Virus-induced CPE was then scored microscopically and the minimum concentration of sample giving complete protection of the cell monolayers (MIC) determined.

A short description of series [4]: Drug-induced cytotoxicity in uninfected cell monolayers. It counts as cell-based. The note with it: uninfected cells, not cytotoxic at concentrations up to 100 µg/ml, read-out: concentration at which cytotoxicity occurs. As for the experimental part:
Cultures were fixed in formal saline, the agarose overlays were carefully washed off, and then the cell monolayers were stained with carbol fuchsin. A stereo microscope was used to count plaques. The IC₅₀ (concentration to drug which inhibits plaque number by 50% relative to the number of plaques observed in virus control monolayers) of the test compound was calculated. In addition, the monolayers were examined for evidence of drug-induced cytotoxicity; the minimum concentration at which cytotoxicity occurs was recorded.

In series [5] the test system is HSV-2 (MS strain, MRC-5 cells). Put plainly: Plaque reduction test for herpes simplex virus 2. It counts as cell-based. The following applies: Human alphaherpesvirus 2, MRC5, plaque number reduced by 50%. The protocol:
Cells (Vero or MRC-5) were grown to confluence in 24 well multi-dishes (well diameter = 1.5cm). The drained cell monolayers were each infected with approximately 50 infectious particles of herpes simplex virus 1 (HSV-1; strain HFEM) or herpes simplex virus 2 (HSV-2; strain MS) in 100µl of phosphate-buffered saline. The virus was adsorbed for 1 hour at room temperature. After adsorption, residual inoculum was removed from each well and replaced with 0.5ml of Eagle's MEM containing 5% newborn calf serum and 0.9% agarose (A37). Once the agarose had set, dilutions of the test compound, which had been prepared in Eagle's MEM (containing 5% newborn calf serum), were added, each well receiving 0.5ml of liquid overlay. The test compound was diluted to give the following series of concentrations: 200, 60, 20, 6....0.06µg/ml; final concentrations in the assay ranged, therefore, between 100µg/ml and 0.03µg/ml. […]
Cultures were fixed in formal saline, the agarose overlays were carefully washed off, and then the cell monolayers were stained with carbol fuchsin. […] The IC₅₀ (concentration to drug which inhibits plaque number by 50% relative to the number of plaques observed in virus control monolayers) of the test compound was calculated. In addition, the monolayers were examined for evidence of drug-induced cytotoxicity; the minimum concentration at which cytotoxicity occurs was recorded.

A word on the IC50: it is the point on the concentration scale where inhibition reaches its midpoint.

For `Nc1ncc2ncn(OC[C@@H](O)CO)c2n1` [Example, (S)-2-Amino-9-(2,3-dihydroxyprop-l-oxy)purine], in series [1], the “potency as an antiviral agent” value is recorded as “greater potency”.
On to `Nc1nc2c(ncn2OC[C@@H](O)CO)c(=O)[nH]1` [Preparation Example, (S)-9-(2,3-Dihydroxyprop-1-oxy)quanine], for which the figures for the IC50 in series [2], in series [3] and in series [5] were 0.7 µg/mL (≈ 2.9 µM), 10 µg/mL (≈ 41.5 µM) and 0.06 µg/mL (≈ 0.249 µM), respectively. In addition, the MCC in series [4] was over 100 µg/mL.
